Assay results as given in US20230390273A1, “4-PHENYL-TETRAHYDROPYRIDINE DERIVATIVES FOR TREATING HEARING DISEASES” (CILCARE DEV, priority 2021, published 2023).
Counter-ions that a name gives are not always drawn. Like-named read-outs stand apart in the source and are kept apart here. Each block holds one molecule with its values, some of them ahead of it.

Experiments:
Assay type in all cases: in vivo, male Wistar rats
[1] = Plasma and inner ear fluid exposure after single oral gavage (Example 1); settings: for concentration at 1 h / concentration at 2 h / concentration at 4 h / concentration at 6 h / concentration at 8 h / concentration at 24 h: male, Wistar; for concentration at 1 h: T0 + 1 hour; for concentration at 2 h: T0 + 2 hours; for concentration at 4 h: T0 + 4 hours; for concentration at 6 h: T0 + 6 hours; for concentration at 8 h: T0 + 8 hours
Description: Two compositions were prepared: composition A and composition B.
Composition A is an aqueous solution comprising: • 6 mg/mL (free base equivalent) of fumarate salt of 1-[2-(4-biphenylyl)ethyl]-4-(3-trifluoromethylphenyl)-1,2,3,6-tetrahydropyridine (=paliroden fumarate), and • 0.6% w/v of methylcellulose with respect to the total volume of the aqueous solution.
Composition B is an aqueous solution comprising: • 4 mg/mL (free base equivalent) of hydrochloride salt of 1-[2-(2-naphthyl)ethyl]-4-(3-trifluoromethylphenyl)-1,2,3,6-tetrahydropyridine (=xaliproden hydrochloride), and • 10% w/v of arabic gum with respect to the total mass of the aqueous solution.
Composition A and composition B were administered to male Wistar rats (5 animals per active agent and timepoint), as described below.
Composition A was administered to 15 male Wistar rats, once, at time TO, via oral injection by gavage, at a dose of 5 mL of composition A per kilogram of the animal, i.e. a dose of 30 mg of paliroden fumarate per kilogram of the animal. The concentration of paliroden in rats plasma and in rats inner ear fluid (IEF) was measured at 6 timepoints, 5 rats being used at each timepoint for the concentration measurements (in the plasma and optionally in the IEF). The timepoints are T0+1 hour, T0+2 hours, T0+4 hours, T0+6 hours, T0+8 hours and T0+24 hours for the concentration measurement in the rats plasma. The timepoints are T0+2 hours, T0+4 hours and T0+24 hours for the concentration measurement in the rats inner ear fluid, as part of a terminal procedure including cochlea sampling and inner ear fluids collection from both ears of the rats. Bioanalytical methods were validated in both matrices (lithium heparin plasma and inner ear fluid) with a range of 0.25 to 500 ng/mL in plasma and 0.25 to 100 ng/mL in inner ear fluids.
Composition B was administered to 15 others male Wistar rats, once, at time T0, via oral injection by gavage, at a dose of 5 mL of composition B per kilogram of the animal, i.e. a dose of 20 mg of xaliproden hydrochloride per kilogram of the animal. The concentration of xaliproden in rats plasma and in rats inner ear fluid (IEF) was measured at 6 timepoints, 5 rats being used at each timepoint for the concentrations measurements (in the plasma and optionally in the IEF). The timepoints are T0+1 hour, T0+2 hours, T0+4 hours, T0+6 hours, T0+8 hours and T0+24 hours for the concentration measurement in the rats plasma. The timepoints are T0+2 hours, T0+4 hours and T0+24 hours for the concentration measurement in the rats inner ear fluid, as part of a terminal procedure including cochlea sampling and inner ear fluids collection from both ears of the rats. Bioanalytical methods were validated in both matrices (lithium heparin plasma and inner ear fluid) with a range of 0.25 to 500 ng/mL in plasma and 0.25 to 500 ng/mL in inner ear fluids.

[2] = Plasma and inner ear fluid exposure after single trans-tympanic injection in thermoreversible hydrogel composition (Example 4); settings: for concentration at 7 days / concentration at 168 h / concentration at 1 h / concentration at 24 h: male, Wistar, other: trans-tympanic injection; for concentration at 7 days: inner ear fluid, read-out: Concentrations in the inner ear fluid at 7 days post injection; for concentration at 7 days / High concentrations rapidly reached in the inner ear fluid / High concentrations rapidly reached in the IEF (molar): trans-tympanic injection; for concentration at 1 h: T0 + 1 hour; for concentration at 24 h: T0 + 24 hours; for High concentrations rapidly reached in the inner ear fluid: summary
Description: Composition 4P and composition 4X as described in example 2 were administered to male Wistar rats (5 animals per active agent and timepoint), as described below.
At time T0, 30 μL of composition 4P were administered to 15 rats, in a single ear via trans-tympanic injection. The dose of paliroden fumarate that has been administered is thus of 300 μg in one ear of each rat.
At time T0, 30 μL of composition 4X were administered to 15 other rats, in a single ear via trans-tympanic injection. The dose of xaliproden hydrochloride that has been administered is thus of 150 μg in one ear of each rat.
For the 15 rats that have received composition 4P and for the 15 rats that have received composition 4X, plasmatic and inner ear expositions were determined via blood and cochlea terminal sampling in order to achieve lithium-heparin plasma and inner ear fluid preparation, at T+1 hour, T+24 hours and T+168 hours. Bioanalytical methods were validated in both matrices (lithium heparin plasma and inner ear fluid) with a range of 0.2 to 815 ng/mL for paliroden (fumarate salt) and 0.38 to 763 ng/mL for xaliproden (hydrochloride salt).

[3] = test system: synaptic ribbons in inner hair cells; assay: Ribbon synapse immunostaining and counting in cochlea, immediate treatment (Example 6); settings: 2 hours and 8 days post-noise; for Number of pre-synaptic elements CtBP2 per IHC: 25 kHz and 32 kHz; for Number of pre-synaptic elements CtBP2 per IHC / Number of colocalized ribbons per IHC: vs traumatized vehicle group; for Number of colocalized ribbons per IHC: 25 kHz, paliroden 300 μg/ear, xaliproden 150 μg/ear; for Synapse loss in the inner hair cells: regions coding high frequency sounds
Description: At T+28DAYS, after DPOAE/ABR measures, 10 cochleae (all eight (8) left cochleae and two (2) right cochleae taken randomly) per group were rapidly sampled and immediately fixed by PFA perfusion (through the round and oval windows with PFA 4% after creating a small hole at the apex) in order to performed ribbon synapse immunostaining and analysis. Cochleae were fixed for 1 hour in a 4% PFA solution and decalcified in undiluted RDO (10 mL/cochlea for a minimum of 2 hours). The membranous and sensory spiral containing the organ of Corti are dissected out as a flat surface preparation under a dissecting microscope and immunolabelled with appropriate antibodies: • Vglut3 (Vglut3-Guinea Pig IgG; #135 204, Synaptic systems and Anti-Guinea Pig IgG (H+L), #A21450; Thermo Fisher Scientific 647 nm Far-Red) to stain inner hair cell bodies (vesicular glutamate transporter). • Homer (Homer-Rabbit IgG; #GTX103278; Genetex and Anti-Rabbit IgG (H+L) #A11008 Thermo Fisher Scientific 568 nm Red) to stain dendritic proteins of auditory nerve fibers connecting to IHC (post-synaptic). • CtBP2 (CtBP2-Mouse-IgG1; #612044; BD Transduction Laboratories and Anti-Mouse IgG1, #A21121, Thermo Fisher Scientific 488 Green) to stain the ribeye protein as pre-synaptic marker in IHC. • Phalloidin (Alexa Fluor™ Plus 405 Phalloidin; #A30104; Thermo Fisher Scientific 405 Blue).
Images were acquired on a confocal microscope and the slides were analyzed to i) evaluate by visual observation the presence of OHC (outer hair cells) and IHC (inner hair cells) (based on nuclei staining with CtBP2 and HC cell body staining with phalloidin) and ii) count the number of synaptic ribbons in selected inner hair cells in cochlea regions coding sound of selected frequency (16 kHz, 25 kHz and 32 kHz).
The number of pre- (CtBP2) and post-synaptic (Homer) labeled spots was counted using Imaris software in 3 dimensions for each image. Co-localization of pre- and post-synaptic elements was defined as a distance of maximum […] between CtBP2- and Homer-labeled spots, using an in-house Matlab program to calculate the distances between CtBP2 and Homer labels from the x, y, and z coordinates.

[4] = plasma, rat, single oral 30 mg/kg, read-out: Concentration of paliroden (fumarate salt), Plasma, Mean
[5] = rat inner ear fluid, single oral 30 mg/kg, read-out: Concentration of paliroden (fumarate salt), IEF, Mean
[6] = rat inner ear fluid, trans-tympanic 300 μg, thermoreversible hydrogel, read-out: Concentration of paliroden (fumarate salt), IEF, Mean
[7] = plasma, rat, trans-tympanic 300 μg one ear, suspension in thermoreversible hydrogel, read-out: Concentration of paliroden (fumarate salt), Plasma, Mean
[8] = rat, suspension in thermoreversible hydrogel
[9] = rat, thermoreversible hydrogel, approximate conversion
[10] = plasma, rat, single oral 20 mg/kg, read-out: Concentration of xaliproden (hydrochloride salt), Plasma, Mean
[11] = rat inner ear fluid, single oral 20 mg/kg, read-out: Concentration of xaliproden (hydrochloride salt), IEF, Mean
[12] = plasma, 150 μg in one ear, rat, trans-tympanic 150 μg one ear, suspension in thermoreversible hydrogel, read-out: Concentration of xaliproden (hydrochloride salt), Plasma, Mean

- concentration at 1 h [1, 4]: 35 ng/mL
- concentration at 2 h [1, 4]: 106 ng/mL
- concentration at 4 h [1, 4]: 3.1 ng/mL
- concentration at 6 h [1, 4]: 4.4 ng/mL
- concentration at 8 h [1, 4]: 1.6 ng/mL
- concentration at 24 h ([1]; plasma, rat, single oral 30 mg/kg, T0 + 24 hours, read-out: Concentration of paliroden (fumarate salt), Plasma, Mean): 1.7 ng/mL
- concentration at 2 h [1, 5]: 10.9 ng/mL
- concentration at 4 h [1, 5]: 2.6 ng/mL
- Concentration of paliroden (fumarate salt), IEF, Mean ([1]; rat inner ear fluid, single oral 30 mg/kg, T0 + 24 hours): BLQ
- concentration at 7 days ([2]; 300 μg, rat, thermoreversible hydrogel, approximate conversion): ~1200 nM
- concentration at 7 days ([2]; rat, thermoreversible hydrogel): ~600 ng/mL
- concentration at 168 h ([2]; 300 μg in one ear, rat inner ear fluid, trans-tympanic 300 μg, thermoreversible hydrogel, T0 + 168 hours, n = 4, read-out: Concentration of paliroden (fumarate salt), IEF, Mean): 687 ng/mL
- concentration at 1 h [2, 6]: 5490 ng/mL
- concentration at 24 h [2, 6]: 1370 ng/mL
- concentration at 168 h ([2]; plasma, 300 μg in one ear, rat, trans-tympanic 300 μg one ear, suspension in thermoreversible hydrogel, T0 + 168 hours, read-out: Concentration of paliroden (fumarate salt), Plasma, Mean): 0.2 ng/mL
- concentration at 1 h [2, 7]: 1 ng/mL
- concentration at 24 h [2, 7]: 0.4 ng/mL
- High concentrations rapidly reached in the inner ear fluid [2, 8]: approximately 5000 ng/mL
- High concentrations rapidly reached in the IEF (molar) [2, 9]: approximately 10 μM
SMILES: FC(F)(F)c1cccc(C2=CCN(CCc3ccc(-c4ccccc4)cc3)CC2)c1 [paliroden (fumarate salt), 1-[2-(4-biphenylyl)ethyl]-4-(3-trifluoromethylphenyl)-1,2,3,6-tetrahydropyridine]
- Number of pre-synaptic elements CtBP2 per IHC [3]: increase
- Number of colocalized ribbons per IHC [3]: increase
- Synapse loss in the inner hair cells [3]: tend to repair synapse loss

- concentration at 1 h [1, 10]: 44.1 ng/mL
- concentration at 2 h [1, 10]: 58 ng/mL
- concentration at 4 h [1, 10]: 25.1 ng/mL
- concentration at 6 h [1, 10]: 28.4 ng/mL
- concentration at 8 h [1, 10]: 23.4 ng/mL
- concentration at 24 h ([1]; plasma, rat, single oral 20 mg/kg, T0 + 24 hours, read-out: Concentration of xaliproden (hydrochloride salt), Plasma, Mean): 44.1 ng/mL
- concentration at 2 h [1, 11]: 19.4 ng/mL
- concentration at 4 h [1, 11]: 21.7 ng/mL
- concentration at 24 h ([1]; rat inner ear fluid, single oral 20 mg/kg, T0 + 24 hours, read-out: Concentration of xaliproden (hydrochloride salt), IEF, Mean): 16 ng/mL
- concentration at 7 days ([2]; rat, thermoreversible hydrogel): ~100 ng/mL
- concentration at 1 h ([2]; 150 μg in one ear, rat inner ear fluid, trans-tympanic 150 μg, thermoreversible hydrogel, n = 4, read-out: Concentration of xaliproden (hydrochloride salt), IEF, Mean): 5610 ng/mL
- concentration at 24 h ([2]; 150 μg in one ear, rat inner ear fluid, trans-tympanic 150 μg, thermoreversible hydrogel, read-out: Concentration of xaliproden (hydrochloride salt), IEF, Mean): 108 ng/mL
- concentration at 168 h ([2]; 150 μg in one ear, rat inner ear fluid, trans-tympanic 150 μg, thermoreversible hydrogel, T0 + 168 hours, read-out: Concentration of xaliproden (hydrochloride salt), IEF, Mean): 117 ng/mL
- concentration at 1 h [2, 12]: 4.9 ng/mL
- concentration at 24 h [2, 12]: 9.2 ng/mL
- Concentration of xaliproden (hydrochloride salt), Plasma, Mean ([2]; rat, trans-tympanic 150 μg one ear, suspension in thermoreversible hydrogel, T0 + 168 hours): BLQ
- High concentrations rapidly reached in the inner ear fluid [2, 8]: approximately 5000 ng/mL
- High concentrations rapidly reached in the IEF (molar) [2, 9]: approximately 10 μM
SMILES: FC(F)(F)c1cccc(C2=CCN(CCc3ccc4ccccc4c3)CC2)c1 [xaliproden (hydrochloride salt), 1-[2-(2-naphthyl)ethyl]-4-(3-trifluoromethylphenyl)-1,2,3,6-tetrahydropyridine]
- Number of pre-synaptic elements CtBP2 per IHC [3]: increase
- Number of colocalized ribbons per IHC [3]: increase
- Synapse loss in the inner hair cells [3]: tend to repair synapse loss
